Common to all, as to experiment: NCI tumour cell line growth inhibition, 48 h
The subject of assay [1] is HCT-116 colon.
Assay [2] concerns OVCAR-4 ovarian.
The test system of assay [3] is HCT-15 colon.
Assay [4] has as its system LOX IMVI melanoma.
For assay [5], the system named is KM12 colon.
The subject of assay [6] is MCF7 breast.
Assay [7] concerns RXF 393 renal.
The test system of assay [8] is IGROV1 ovarian.
For assay [9], the system named is HCC-2998 colon.
The subject of assay [10] is K-562 leukemia.

Molecules are shown by their SMILES.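 1) Cells in 96-well plates. 2) Compound, 48 h, 5 concentrations. 3) Linear interpolation between surrounding doses. 4) Unreached endpoint = highest concentration. GI50: concentration for 50% inhibition of growth. TGI marks complete inhibition of growth.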

As for `CCCCC[C@H]1C/C=C2/C(=O)C=C[C@@H]2C/C=C\CCCC(=O)O[C@@H](CCCCC)C/C=C2/C(=O)C=C[C@@H]2C/C=C\CCCC(=O)O1`, the GI50 in [1] was 89.6 nM; in [2], 475 nM; in [3], 428 nM; in assay [4], 69.5 nM; in assay [5], 382 nM; in assay [6], 119 nM. The GI50 is 193 nM in assay [7], 123 nM in assay [8], 422 nM in assay [9] and 89.1 nM in [10]. Moreover, the TGI was 333 nM in [1]; 2670 nM in assay [2]; 1010 nM in assay [3]; 217 nM in assay [4]; 786 nM in [5]; 484 nM in assay [6]. Besides, the TGI is 526 nM in assay [7], 596 nM in assay [8], 816 nM in assay [9] and 561 nM in assay [10].

Regarding `COC(=O)[C@@]12OC[C@]34[C@H]([C@@H](O)[C@@H]1O)[C@@]1(C)[C@H](O)C(=O)C=C(C)[C@@H]1C[C@H]3OC(=O)C(OC(C)=O)[C@@H]24` (some centres undefined), the GI50 in assay [1] is 22 nM; in [2] it was 39.8 nM; in assay [3] it was 101 nM; in assay [4], 15.2 nM; in [5], 30 nM; in assay [6] it was 21.4 nM. Moreover, the GI50 was 25.3 nM in [7], 30.2 nM in assay [8], 16.8 nM in assay [9] and 31.4 nM in assay [10]. Moreover, the TGI in assay [1] worked out at 50.3 nM; in assay [2], 272 nM; in assay [3], 458 nM; in [4], 31.1 nM; in [5], 136 nM; in assay [6], 70.1 nM. The values for the TGI in assay [7], in assay [8] and in [9] were 67.3 nM, 134 nM and 111 nM, respectively.

In the case of `COc1cccc(C2=C(c3c(C)n(C)c4ccccc34)C(=O)NC2=O)c1`, the GI50 in assay [1] was 19700 nM; in assay [2], over 21500 nM; in [3] it was 12100 nM; in [4], over 25000 nM; in [5], 15500 nM; in assay [6] it was 17500 nM. Besides, the GI50 is 12000 nM in assay [7], over 22300 nM in [8], over 25000 nM in [9] and 11000 nM in assay [10]. Moreover, the TGI in assay [1], in [2], in [3], in assay [4], in [5] and in assay [6] was over 25000 nM in each case. Moreover, the TGI in assay [7], in [8], in assay [9] and in assay [10] was over 25000 nM each time.

For `C[C@]12CCc3sc(NCCc4ccccc4)nc3C1=CC[C@@H]1[C@@H]2CC[C@]2(C)C(=O)CC[C@@H]12`, the GI50 in [1] was 2870 nM; in assay [2] it was 3930 nM; in [3], 1570 nM; in [4], 1700 nM; in [5], 3600 nM; in assay [6], 2680 nM. The GI50 was 1730 nM in assay [7], 2600 nM in [8], 8190 nM in assay [9] and 2890 nM in assay [10]. For the same molecule, the TGI in assay [1] was 12300 nM; in [2], over 100000 nM; in [3] it was 4490 nM; in [4] it was 3170 nM; in assay [5], over 100000 nM; in assay [6], over 100000 nM. Besides, the TGI was 4490 nM in [7], 6180 nM in assay [8], over 100000 nM in assay [9] and over 100000 nM in assay [10].

As to `COc1ccc(C2CC(C)(O)Oc3cc4c(cc32)OCO4)cc1` (centres undefined), the TGI in [1], in [2], in assay [3], in assay [4], in assay [5] and in [6] was over 100000 nM in each case. Further, the TGI in [7] was over 39000 nM; in assay [8], over 100000 nM; in assay [9], over 100000 nM; in [10], 98700 nM.

In the case of `CC1OC(OC2C[C@](O)(C(=O)CF)Cc3c(O)c4c(c(O)c32)C(=O)c2ccccc2C4=O)CC(N)C1O` (some centres undefined), the TGI in assay [1] came to 388 nM; in [2], 860 nM; in assay [3], 514 nM; in [4] it was 276 nM; in assay [5] it was 239 nM; in [6], 1080 nM. The TGI in [7] is 268 nM; in assay [8], 2400 nM; in [9], 488 nM; in assay [10], 1960 nM.

In the case of `CCC1CN2C(=N1)c1ccccc1-c1cc(Cl)ccc12` (centres undefined), the GI50 in assay [1] was 2530 nM; in assay [2], 3970 nM; in assay [3], 2860 nM; in [4], 1810 nM; in assay [5], 3180 nM; in [6], 2450 nM. Also, the GI50 in assay [7] is 3500 nM; in [8] it was 2290 nM; in assay [9] it was 4170 nM; in [10] it was 2390 nM. For the same molecule, the TGI in assay [1] stood at 10600 nM; in assay [2], 28600 nM; in [3] it was 11500 nM; in assay [4], 4440 nM; in assay [5], 12500 nM; in assay [6], 14100 nM. For the same molecule, the TGI in assay [7] worked out at 15000 nM; in [8], 15100 nM; in assay [9], 16300 nM; in assay [10], 7100 nM.

As to `Cc1cc(Cl)ccc1Nc1nc(C(F)(F)F)ccc1C(=O)N/N=C/c1ccc(Cl)cc1`, the GI50 is 2460 nM in assay [1]; 1460 nM in assay [2]; 895 nM in [3]; 1380 nM in assay [4]; 2080 nM in assay [5]; 1550 nM in assay [6]. The GI50 in [7] was 3080 nM; in [8] it was 3310 nM; in [9], 1450 nM; in [10], 1830 nM. The TGI was 9870 nM in [1]; 21200 nM in [2]; 13100 nM in [3]; 11700 nM in assay [4]; 7240 nM in assay [5]; 4700 nM in [6]. Further, the TGI in [7] amounted to 22200 nM; in assay [8] it was 13600 nM; in assay [9], 4700 nM; in [10], 8220 nM.

Turning to `COc1ccc2c(=O)cc(-c3ccncc3)oc2c1OC`, the TGI in assay [1] was over 100000 nM; in assay [2], over 100000 nM; in assay [3], over 100000 nM; in assay [4], over 100000 nM; in [5], 96200 nM; in [6], over 100000 nM. The TGI in [7] is 69600 nM; in assay [8] it was 78100 nM; in [9], 48400 nM; in [10] it was over 100000 nM.

These data come from PubChem BioAssay (NCI).
